The record followed here is paper PMC6749236, “Synthesis of Novel 2-(Het)arylpyrrolidine Derivatives and Evaluation of Their Anticancer and Anti-Biofilm Activity” (Molecules, 2019).

By IC50 is commonly meant the midpoint of a concentration-inhibition curve. The melting point is the temperature, or range, at which the solid turns liquid. As a reminder, the ILS is how much longer treated animals lived than controls. High values mean much gain in survival, low ones little gain in survival.

The subject of one data set is M-Hela. In words: Cytotoxicity assay (Cytell Cell Imaging, DAPI/propidium iodide), cancer cell line. The data set is classed as cell-based. As to conditions: Homo sapiens, M-HeLa, read-out: IC50 Cancer Cell Line M-Hela.
A further data set has as its system Chang liver cell line. Description: Cytotoxicity assay (Cytell Cell Imaging), normal cell line. The class given is cell-based. As to conditions: Homo sapiens, read-out: IC50 Normal Cell Line Chang Liver.
Another data set deals with P388 murine leukemia. In words: In vivo anti-tumor activity, i.p. implanted leukemia. Conditions: for ILS / MST ± SD: P388; for Survival: day 60. More on the design: species or system BDF1 hybrid male mice. The protocol: Animals. In vivo experiments were performed using the BDF1 hybrid male mice of 22–24 g weight. The experimental animals were caged in a standard vivarium in 12 h light conditions with free access to food and water. All manipulations with the animals were performed in accordance with the solutions of the Commission on Bioethics of the Institute of Problems of Chemical Physics, Russian Academy of Sciences (IPCP RAS).
Anti-tumor activity. The tumors were transplanted intraperitoneally (i.p.) in accordance with a standard procedure inoculum: 10^6 tumor cells in isotonic solution of NaCl, V = 0.2 cm^3 (leukemia P388). Original compounds were injected intraperitoneally as aqueous solution. Doses from 18 to 83 mg/kg/day and the mode of administration on days 1, 5, and 9 after transplantation were used. In each experiment, a single group of tumor-bearing animals not injected with the compounds served as the control group. Each group consisted of six mice. The animals were observed daily for survival for a minimum of 60 days. The efficacy of the therapy against leukemia (defined as increase in lifespan—ILS) was assessed as the percentage of the median survival time (MST) of the treated group (t) to that of the control group (c): ILS(%) = (MSTt/MSTc) × 100.
Statistics. The experiments were carried out in triplicate. The data are presented in the form X ± SD (mean ± standard deviation). The significance of the differences between the groups was assessed using Student’s t-test. Values of p < 0.05 were considered statistically significant. The data were processed statistically using GraphPad Prism.

[1] abbreviates: 18 mg/kg/day i.p., days 1, 5, 9.
[2] abbreviates: 26 mg/kg/day i.p., days 1, 5, 9.
Setting [3] is: 40 mg/kg/day i.p., days 1, 5, 9.
Where [4] appears, read: 55 mg/kg/day i.p., days 1, 5, 9.
Where [5] appears, read: 83 mg/kg/day i.p., days 1, 5, 9.

`NC(=O)N1CCCC1c1cc2c(cc1O)OCO2` (stereo not drawn) [5a, 2-(6-Hydroxybenzo[d][1,3]dioxol-5-yl)pyrrolidine-1-carboxamide]: the melting point was 206 to 207 °C. Also, the IC50 with M-Hela is > 100 µM. Further, in the data set with Chang liver cell line, the IC50 is > 100 µM.

Turning to `COc1ccc(NC(=O)N2CCCC2c2cc3c(cc2O)OCO3)cc1` (stereo not drawn) [5c, 2-(6-Hydroxybenzo[d][1,3]dioxol-5-yl)-N-(4-methoxyphenyl)pyrrolidine-1-carboxamide], the melting point lay within 112 to 114 °C. In addition, the IC50 with M-Hela was > 100 µM. For the same molecule, in the data set with Chang liver cell line, the IC50 is > 100 µM.

The molecule `O=C(Nc1ccc(Br)cc1)N1CCCC1c1cc2c(cc1O)OCO2` (stereo not drawn) [5d, N-(4-Bromophenyl)-2-(6-hydroxybenzo[d][1,3]dioxol-5-yl)pyrrolidine-1-carboxamide] registered a melting point of 164 °C. Further, in the data set on M-Hela, the IC50 was > 100 µM. The IC50 in the data set with Chang liver cell line is > 100 µM.

`O=C(Nc1ccc(F)cc1)N1CCCC1c1cc2c(cc1O)OCO2` (stereo not drawn) [5e, N-(4-Fluorophenyl)-2-(6-hydroxybenzo[d][1,3]dioxol-5-yl)pyrrolidine-1-carboxamide] registered a melting point of 184 to 185 °C. In addition, the IC50 with M-Hela is > 100 µM. In the data set with Chang liver cell line, the IC50 was > 100 µM.

With `CCCCCCNC(=O)N1CCCC1c1cc2c(cc1O)OCO2` (stereo not drawn) [5f, N-Hexyl-2-(6-hydroxybenzo[d][1,3]dioxol-5-yl)pyrrolidine-1-carboxamide], the melting point was 91 to 93 °C. Also, the IC50 in the data set on M-Hela is > 100 µM. Moreover, the IC50 in the data set with Chang liver cell line is > 100 µM.

Take `O=C(NC1CCCCC1)N1CCCC1c1cc2c(cc1O)OCO2` (stereo not drawn) [5g, N-Cyclohexyl-2-(6-hydroxybenzo[d][1,3]dioxol-5-yl)pyrrolidine-1-carboxamide]: the melting point was in the range of 159 to 160 °C. In the data set on M-Hela, the IC50 was > 100 µM. Also, in the data set with Chang liver cell line, the IC50 was > 100 µM.

On to `CCCCCCNC(=O)N1CCCC1c1ccc(Nc2c([N+](=O)[O-])c(Cl)cc3c2no[n+]3[O-])cc1O` (stereo not drawn) [6f, 6-Chloro-4-((4-(1-(hexylcarbamoyl)pyrrolidin-2-yl)-3-hydroxyphenyl)amino)-5-nitrobenzo[c][1,2,5]oxadiazole 1-oxide], for which the melting point was 121 to 122 °C (dec.). For the same molecule, the IC50 with M-Hela was found to be 47 ± 2.9 µM. Moreover, in the data set on Chang liver cell line, the IC50 is 57 ± 4.3 µM.

`Cc1cc(O)c(C2CCCN2C(=O)Nc2ccccc2)c(=O)o1` (stereo not drawn) [7b, 2-(4-Hydroxy-6-methyl-2-oxo-2H-pyran-3-yl)-N-phenylpyrrolidine-1-carboxamide] registered a melting point of 190 to 191 °C. For the same molecule, in the data set on M-Hela, the IC50 is > 100 µM. The IC50 in the data set with Chang liver cell line is > 100 µM.

As to `COc1ccc(NC(=O)N2CCCC2c2c(O)cc(C)oc2=O)cc1` (stereo not drawn) [7c, 2-(4-Hydroxy-6-methyl-2-oxo-2H-pyran-3-yl)-N-(4-methoxyphenyl)pyrrolidine-1-carboxamide], the melting point fell in the range of 168 to 169 °C. In addition, the IC50 in the data set with M-Hela is > 100 µM. Besides, in the data set with Chang liver cell line, the IC50 is > 100 µM.

Consider `CN(C)CCNC(=O)N1CCCC1c1c(O)c2ccccc2oc1=O.O=C(O)C(F)(F)F` (stereo not drawn) [8h, 2-(2-(4-Hydroxy-2-oxo-2H-chromen-3-yl)pyrrolidine-1-carboxamido)-N,N-dimethylethan-1-aminium 2,2,2-trifluoroacetate], for which the IC50 with M-Hela and with Chang liver cell line was > 100 µM in each case. The ILS was determined as 93% in the data set with P388 murine leukemia (setting [1]); 107% in the data set with P388 murine leukemia (setting [2]); 32% in the data set on P388 murine leukemia (setting [3]); 98% in the data set with P388 murine leukemia (setting [4]); 162% in the data set on P388 murine leukemia (setting [5]). The “MST ± SD” value in the data set with P388 murine leukemia (setting [1]) was 19.3 ± 8.1 days; in the data set with P388 murine leukemia (setting [2]) it was 20.7 ± 8.0 days; with P388 murine leukemia (setting [3]), 13.2 ± 1.6 days; in the data set on P388 murine leukemia (setting [4]) it was 19.8 ± 8.1 days; in the data set with P388 murine leukemia (setting [5]), 26.2 ± 10.7 days. Also, the Survival in the data set with P388 murine leukemia (18 mg/kg/day) was determined as 17%; with P388 murine leukemia (26 mg/kg/day) it was 17%; with P388 murine leukemia (40 mg/kg/day) it was 0%; with P388 murine leukemia (55 mg/kg/day), 17%; in the data set on P388 murine leukemia (83 mg/kg/day), 33%. In addition, in the data set with P388 murine leukemia (P388, dose range 18–83 mg/kg/day i.p., days 1, 5, 9), the “antitumor (anti-leukemic) activity, in words” value is given as “pronounced anti-leukemic activity”.
